System: fine lines, wrinkles in the outer canthus of the eyes (crow's feet area)
Experiment: Roughness reduction [SEr] via Visioscan, Example 1
Type: in vivo, human
Design: Roughness [SEr] via Visioscan / Roughness [SEr] via Visioscan, Mean: scale not given here
Experimental: Three groups of women were recruited to evaluate and compare the efficacy of three anti-aging test products (targeting the periorbital eye area) intended to reduce the appearance of fine lines, wrinkles in the outer canthus of the eyes (crow's feet area) over a 12 week period. Wrinkle assessment was conducted instrumentally using a Visioscan image analysis system. Effectiveness of the test product was evaluated using panelist self-assessment via questionnaire responses comprised of 3-4 questions (Q1, Q2, Q3 & Q4). Each stage in the progression of treatments was photographically documented using a High Resolution Scientifically Matched Photography technique. Image analysis was utilized to quantify changes in fine lines and crow's feet condition observed in the Scientifically Matched Photographs.
Subject Selection: • Number: Six subjects (two per group) to complete the study. • Sex: Females • Race: Caucasian/Asian/Hispanic • Age Range: 40 through 60 years old
Test samples: • Topical 0.15% of Compound #222 in Oil (a 50/50 mixture of • Propylene Glycol Dicaprylate/Dicaprate and Caprylic/Capric Triglyceride) (Cohort 1) • Topical 0.15% of Compound #222 in PEG400 (Cohort 2) • Topical 0.05% of Compound #222 in PEG400 (Cohort 3)
Prior to baseline measurements being taken, areas of involvement were marked on the facial surface using a standard template, to ensure that instruments were repositioned in the same location at each visit. The biophysical measurements (Surface Evaluation of Living Skin via Visioscan) were conducted by a trained technician. Pre-treatment High Resolution Scientifically Matched Photographs were taken.
[…] After acclimating to ambient conditions, High Resolution Scientifically Matched Photographs were be taken and biophysical measurements (Surface Evaluation of Living Skin via Visioscan) were repeated using the standard template to identify test sites on the face. In addition (during the acclimation period) all participants were be asked to fill out a self-assessment questionnaire.
Surface Evaluation of Living Skin Visioscan: The Visioscan (Courage and Khazaka) took a direct image of the living skin using a measuring head containing a CCD-camera and two metal halogen lamps positioned opposite each other in order to ensure even illumination of the measuring field on the skin (Skin Pharmacol Appl Skin Physiol (1999), 12(1-2), 1-11 and Cosmetic & Toiletries magazine (2009), 124(6), 51-54). The grey level distribution of the pixels in the image correspond to different phenomena (white pixels represent desquamation on the skin, dark pixels represent lines and wrinkles). The software with the Visioscan automatically calculates skin smoothness, skin roughness, scaliness and wrinkle parameters. […]
The source data was Visioscan and PhotoGrammetrix Image Analysis readings along with subjective assessments, which were totaled and reported as average scores. Photographs were placed side by side as to compare the photographs of before and after application of the test product in the eye area. […] The data obtained via Visioscan and from PhotoGrammetrix Image Analysis was quoted as % differences from baseline at each of the previously described time points. A paired t-test analysis was conducted in order to compare the results of post test product application measurements to baseline measurements where applicable. Statistical significance was established if p≤(α=0.05) was calculated.

O=C(CCC(=O)c1ccc2c(c1)OCO2)c1ccccc1 [#222]
Roughness [SEr] via Visioscan, Mean (Day 7, Topical 0.05% in PEG (Cohort 3)): 1.64
Roughness [SEr] via Visioscan, Mean (Day 7, Topical 0.15% in Oil (Cohort 1)): 1.97
Roughness [SEr] via Visioscan, Mean (Day 7, Topical 0.15% in PEG (Cohort 2)): 1.67
Roughness [SEr] via Visioscan, % Difference of Mean (Day 7 vs Baseline, Topical 0.05% in PEG (Cohort 3)): −20.24%
Roughness [SEr] via Visioscan, % Difference of Mean (Day 7 vs Baseline, Topical 0.15% in Oil (Cohort 1)): −10.36%
Roughness [SEr] via Visioscan, % Difference of Mean (Day 7 vs Baseline, Topical 0.15% in PEG (Cohort 2)): −10.19%
Roughness [SEr] via Visioscan, Mean (Day 14, Topical 0.05% in PEG (Cohort 3)): 1.51
Roughness [SEr] via Visioscan, Mean (Day 14, Topical 0.15% in Oil (Cohort 1)): 1.77
Roughness [SEr] via Visioscan, Mean (Day 14, Topical 0.15% in PEG (Cohort 2)): 1.62
Roughness [SEr] via Visioscan, % Difference of Mean (Day 14 vs Baseline, Topical 0.05% in PEG (Cohort 3)): −26.59%
Roughness [SEr] via Visioscan, % Difference of Mean (Day 14 vs Baseline, Topical 0.15% in Oil (Cohort 1)): −19.36%
Roughness [SEr] via Visioscan, % Difference of Mean (Day 14 vs Baseline, Topical 0.15% in PEG (Cohort 2)): −12.53%
Roughness [SEr] via Visioscan (Subject #1, Day 7, Topical 0.15% in Oil (Cohort 1)): 2.46
Roughness [SEr] via Visioscan, Individual % Difference (Subject #1, Day 7 vs Baseline, Topical 0.15% in Oil (Cohort 1)): −1.60%
Roughness [SEr] via Visioscan (Subject #1, Day 14, Topical 0.15% in Oil (Cohort 1)): 2.25
Roughness [SEr] via Visioscan, Individual % Difference (Subject #1, Day 14 vs Baseline, Topical 0.15% in Oil (Cohort 1)): −9.82%
Roughness [SEr] via Visioscan (Subject #2, Day 7, Topical 0.15% in Oil (Cohort 1)): 1.48
Roughness [SEr] via Visioscan, Individual % Difference (Subject #2, Day 7 vs Baseline, Topical 0.15% in Oil (Cohort 1)): −21.90%
Roughness [SEr] via Visioscan (Subject #2, Day 14, Topical 0.15% in Oil (Cohort 1)): 1.29
Roughness [SEr] via Visioscan, Individual % Difference (Subject #2, Day 14 vs Baseline, Topical 0.15% in Oil (Cohort 1)): −31.93%
Roughness [SEr] via Visioscan (Subject #3, Day 7, Topical 0.15% in PEG (Cohort 2)): 1.95
Roughness [SEr] via Visioscan, Individual % Difference (Subject #3, Day 7 vs Baseline, Topical 0.15% in PEG (Cohort 2)): −11.79%
Roughness [SEr] via Visioscan (Subject #3, Day 14, Topical 0.15% in PEG (Cohort 2)): 1.90
Roughness [SEr] via Visioscan, Individual % Difference (Subject #3, Day 14 vs Baseline, Topical 0.15% in PEG (Cohort 2)): −13.83%
Roughness [SEr] via Visioscan (Subject #4, Day 7, Topical 0.15% in PEG (Cohort 2)): 1.39
Roughness [SEr] via Visioscan, Individual % Difference (Subject #4, Day 7 vs Baseline, Topical 0.15% in PEG (Cohort 2)): −7.84%
Roughness [SEr] via Visioscan (Subject #4, Day 14, Topical 0.15% in PEG (Cohort 2)): 1.35
Roughness [SEr] via Visioscan, Individual % Difference (Subject #4, Day 14 vs Baseline, Topical 0.15% in PEG (Cohort 2)): −10.63%
Roughness [SEr] via Visioscan (Subject #5, Day 7, Topical 0.05% in PEG (Cohort 3)): 1.83
Roughness [SEr] via Visioscan, Individual % Difference (Subject #5, Day 7 vs Baseline, Topical 0.05% in PEG (Cohort 3)): −29.07%
Roughness [SEr] via Visioscan (Subject #5, Day 14, Topical 0.05% in PEG (Cohort 3)): 1.77
Roughness [SEr] via Visioscan, Individual % Difference (Subject #5, Day 14 vs Baseline, Topical 0.05% in PEG (Cohort 3)): −31.40%
Roughness [SEr] via Visioscan (Subject #6, Day 7, Topical 0.05% in PEG (Cohort 3)): 1.44
Roughness [SEr] via Visioscan, Individual % Difference (Subject #6, Day 7 vs Baseline, Topical 0.05% in PEG (Cohort 3)): −5.26%
Roughness [SEr] via Visioscan (Subject #6, Day 14, Topical 0.05% in PEG (Cohort 3)): 1.24
Roughness [SEr] via Visioscan, Individual % Difference (Subject #6, Day 14 vs Baseline, Topical 0.05% in PEG (Cohort 3)): −18.42%
